Reference: PubChem BioAssay (NCI)
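All cell lines were grown in 96-well plates and treated with compound for 48 hours. GI50: concentration for 50% inhibition of growth. TGI marks complete inhibition of growth.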

Assays:
Experiment in all cases: inhibition of tumour cell growth, NCI panel, 48 h
[1] = system: SF-539 CNS
[2] = system: IGROV1 ovarian
[3] = system: UO-31 renal
[4] = system: HL-60(TB) leukemia
[5] = system: BT-549 breast
[6] = system: ACHN renal
[7] = system: T-47D breast
[8] = system: MALME-3M melanoma
[9] = system: HCT-116 colon
[10] = system: HOP-62 NSCLC
[11] = system: TK-10 renal
[12] = system: NCI-H226 lung
[13] = system: SNB-19 CNS
[14] = system: A549 NSCLC
[15] = system: CAKI-1 renal
[16] = system: NCI-H23 lung
[17] = system: SK-MEL-5 melanoma
[18] = system: 786-0 renal
[19] = system: MDA-MB-468 breast
[20] = system: UACC-62 melanoma
[21] = system: HCT-15 colon
[22] = system: SNB-75 CNS
[23] = system: RXF 393 renal
[24] = system: SK-OV-3 ovarian
[25] = system: SN12C renal
[26] = system: A498 renal
[27] = system: M14 melanoma
[28] = system: OVCAR-4 ovarian
[29] = system: PC-3 prostate
[30] = system: SK-MEL-2 melanoma
[31] = system: COLO 205 colon
[32] = system: EKVX NSCLC
[33] = system: OVCAR-5 ovarian
[34] = system: SF-295 CNS
[35] = system: NCI/ADR-RES ovarian
[36] = system: MCF7 breast
[37] = system: SK-MEL-28 melanoma
[38] = system: HOP-92 NSCLC
[39] = system: LOX IMVI melanoma
[40] = system: NCI-H522 lung
[41] = system: K-562 leukemia
[42] = system: HCC-2998 colon
[43] = system: SF-268 CNS
[44] = system: UACC-257 melanoma
[45] = system: RPMI-8226 leukemia
[46] = system: HS 578T breast
[47] = system: MDA-MB-231 breast
[48] = system: DU-145 prostate

## COc1ccc2c(c1)c(-c1cc3nc(-c4cn(C)c5ncc(Br)cc45)cc(N)n3n1)cn2C
[1]
  GI50: 1.67 µM
  TGI: 3.13 µM
[2]
  GI50: 2.04 µM
  TGI: 4.54 µM
[3]
  GI50: 1.78 µM
  TGI: 4.41 µM
[4]
  GI50: 2.07 µM
  TGI: 5.39 µM
[5]
  GI50: 2.12 µM
  TGI: 4.49 µM
[6]
  GI50: 1.5 µM
  TGI: 3.15 µM
[7]
  GI50: 1.66 µM
  TGI: 3.68 µM
[8]
  GI50: 1.92 µM
  TGI: 3.47 µM
[9]
  GI50: 1.66 µM
  TGI: 3.04 µM
[10]
  GI50: 2.09 µM
  TGI: 5.98 µM
[11]
  GI50: 2.36 µM
  TGI: 6.69 µM
[12]
  GI50: 4.19 µM
  TGI: 20.1 µM
[13]
  GI50: 2.25 µM
  TGI: 5.58 µM
[14]
  GI50: 2.31 µM
  TGI: 9.05 µM
[15]
  GI50: 1.48 µM
  TGI: 3.3 µM
[16]
  GI50: 2.25 µM
  TGI: 6.77 µM
[17]
  GI50: 3.27 µM
  TGI: 12.1 µM
[18]
  GI50: 1.73 µM
  TGI: 3.16 µM
[19]
  GI50: 1.32 µM
  TGI: 2.82 µM
[20]
  GI50: 1.56 µM
  TGI: 3.1 µM
[21]
  GI50: 1.48 µM
  TGI: 3.54 µM
[22]
  GI50: 1.66 µM
  TGI: 4.58 µM
[23]
  GI50: 1.96 µM
  TGI: 3.57 µM
[24]
  GI50: 2.41 µM
  TGI: 6.25 µM
[25]
  GI50: 2.11 µM
  TGI: 6.03 µM
[26]
  GI50: 2.18 µM
  TGI: 7.22 µM
[27]
  GI50: 1.66 µM
  TGI: 3.23 µM
[28]
  GI50: 2.13 µM
  TGI: 5.17 µM
[29]
  GI50: 2.45 µM
  TGI: > 100 µM
[30]
  GI50: 2.07 µM
  TGI: 4.84 µM
[31]
  GI50: 1.81 µM
  TGI: 3.44 µM
[32]
  GI50: 1.48 µM
  TGI: 3.39 µM
[33]
  GI50: 1.63 µM
  TGI: 3.96 µM
[34]
  GI50: 1.77 µM
  TGI: 3.65 µM
[35]
  GI50: 2.28 µM
  TGI: 5.62 µM
[36]
  GI50: 1.77 µM
  TGI: 3.72 µM
[37]
  GI50: 1.61 µM
  TGI: 3.02 µM
[38]
  GI50: 2.05 µM
  TGI: 4.24 µM
[39]
  GI50: 1.53 µM
  TGI: 2.89 µM
[40]
  GI50: 1.87 µM
  TGI: 3.9 µM
[41]
  GI50: 3.17 µM
  TGI: > 100 µM
[42]
  GI50: 1.66 µM
  TGI: 3.16 µM
[43]
  GI50: 2.3 µM
  TGI: 6.14 µM
[44]
  GI50: 1.79 µM
  TGI: 3.72 µM
[45]
  GI50: 3.32 µM
  TGI: > 100 µM
[46]
  GI50: 2.29 µM
  TGI: 6.47 µM
[47]
  GI50: 1.62 µM
  TGI: 3.28 µM
[48]
  GI50: 2.79 µM
  TGI: 8.15 µM
